The values that follow come from patent US9345243B2, “Chemicals composition for reducing stress on plant” (Nippon Soda Co., Ltd., priority 2012, dated 2016).

For the first assay, the system named is Tomato (breed: Momotaro). Put plainly: Relief effects of high temperature injury on tomato (Test Example 3). Particulars: spray, 40° C. daylight / 30° C. dark, 4 days, ascorbyl palmitate 600 ppm, thiophanate-methyl 467 ppm, boscalid 333 ppm, cyflufenamid 17 ppm + triflumizole 75 ppm.
Method: Tomato (breed: Momotaro, 2 replications) grown up to the 4 leaf stage in a greenhouse was prepared.
A water dispersible granule of 30% ascorbyl palmitate and a commercially available agent containing the substance (B) as described in Table 8 were diluted with tap water into a concentration described in Table 8, and the diluted solution was sprayed over the whole nursery plants in a sufficient amount. After air dried, they were allowed to grow under cycle conditions of 16 hours under a daylight condition at 40° C. and 8 hours under a dark condition at 30° C. The degree of disorders was investigated at an elapsed time of 4 days after the spraying.
The degree of necrosis due to high temperature was evaluated by 11 levels of disorder indices from 0 (no necrosis) to 10 (withering to death). From this, the injury relief percentages were computed by the following formula.
For the compound `CCCCCCCCCCCCCCCC(=O)OC[C@H](O)[C@H]1OC(=O)C(O)=C1O` [ascorbyl palmitate], the “relief percents of injury (%)” value is recorded as 40%.

On to `O=C(Nc1ccccc1-c1ccc(Cl)cc1)c1cccnc1Cl` [Boscalid], for which the “relief percents of injury (%)” value is on record as 40%.

With `COC(=O)NC(=S)Nc1ccccc1NC(=S)NC(=O)OC` [Thiophanate-methyl], the “relief percents of injury (%)” value was 40%.

Another assay relates to Cucumber (breed: Sagamihanjiro). Put plainly: Relief effects of salt injury on cucumber (Test Example 8). Particulars: spray, 0.1% sodium chloride irrigation from 3 days, above ground raw weight at 20 days, ascorbyl palmitate 600 ppm, imidacloprid 50 ppm, pymetrozine 100 ppm, cyenopyrafen 150 ppm, pyraclostrobin 50 ppm, normal irrigation = 100.
Method: Cucumber (breed: Sagamihanjiro, 2 replications) hydroponically grown up to the 1.5 leaf stage in a greenhouse was prepared.
A water dispersible granule of 30% ascorbyl palmitate and a commercially available product containing the substance (B) described in Table 14 were diluted with tap water into a concentration described in Table 14, and the diluted solution was sprayed over the nursery plats in a sufficient amount. After air dried, they were cultivated in a greenhouse with normal irrigation. Irrigation was changed to 0.1% aqueous sodium chloride solution at the elapsed time of 3 days after the spraying, and cultivated. The raw weight of an above ground part was measured at the elapsed time of 20 days after the spraying. From this, injury relief percentages were computed by the following formula.
Take `Cc1nn(C)c(/C(OC(=O)C(C)(C)C)=C(\C#N)c2ccc(C(C)(C)C)cc2)c1C` [cyenopyrafen]: the “relief percents of injury (%)” value is given as 51%.

In the case of `CCCCCCCCCCCCCCCC(=O)OC[C@H](O)[C@H]1OC(=O)C(O)=C1O` [ascorbyl palmitate], the “relief percents of injury (%)” value stood at 53%.

Take `COC(=O)N(OC)c1ccccc1COc1ccn(-c2ccc(Cl)cc2)n1` [Pyraclostrobin]: the “relief percents of injury (%)” value turned out to be 77%.

For `CC1=NNC(=O)N(/N=C/c2cccnc2)C1` [Pymetrozine], the “relief percents of injury (%)” value was 53%.

Turning to `O=[N+]([O-])NC1=NCCN1Cc1ccc(Cl)nc1` [Imidacloprid], the “relief percents of injury (%)” value turned out to be 33%.
